# ± gives the expanded uncertainty stated by the source.
# Conditions: Liquid; Manometric method
row,SMILES,Normal boiling temperature
1,Cc1ccc(C(C)C)cc1 [1-(1-methylethyl)-4-methylbenzene],176.24 ± 0.31 °C
2,C=C(C)[C@@H]1CC=C(C)CC1 [(S)-1-methyl-4-(1-methylethenyl)cyclohexene],177.19 ± 0.36 °C
3,C=C1CCC2CC1C2(C)C (stereo not drawn) [β-pinene],165.80 ± 0.31 °C
